The structures appear in SMILES notation.

The values that follow come from patent US6762052B1, “DNA sequence encoding flavin-containing monooxygenase” (priority 1993, dated 2004).

Data set [1] is described as follows: in vitro. To be noted: human, pH 8.4. As to the method: (§1) In all cases examined, product formation was directly determined by HPLC analysis of organic extracts.
(§2) Human liver samples were obtained from the Department of Surgery (UCSF) and with a protocol from the Medical College of Wisconsin (S. Wrighton).
(§3) A typical incubation mixture (final volume 0.25 ml) contained hepatic microsomes (0.4 mg of protein) or bacterial lysate (2.3 mg of protein), NADP^+ (0.5 mM), glucose-6-phosphate (2.0 mM), glucose-6-phosphate dehydrogenase (1 IU), DETAPAC (0.8 mM) and potassium phosphate buffer (50 mM, pH 8.4). Reactions were initiated by the addition of substrate and terminated at designated times by the addition of three volumes of cold dichloromethane, mixed thoroughly and centrifuged to separate the aqueous and organic fractions. N- and S-oxide metabolic products in the resulting organic extracts were separated and quantified by HPLC. […] Thiobenzamide and thiobenzamide S-oxide were quantified with this same, HPLC system employing a mobile phase of methanol/acetonitrile/60% perchloric acid (20:80:0.016, v/v) which gave retention volumes of 2.7 and 7.0 ml, respectively. […] The major metabolites formed in the incubations were also subjected to mass spectral analysis after extraction of isolated HPLC fractions.
(§4) RPLC of the S-oxide diastereomers with a Chiracel OT chiral analytical column (25 cm×0.15 cm inner diameter, Daicel Chemical Co., New York, N.Y.) was accomplished with a Beckman system, Kratos UV detector (240 nm) and a Hewlett Packard Integrator. […] Quantification was accomplished by comparing integrated HPLC peak areas after taking into account the difference in the extinction coefficients at 240 nm. Likewise, the cis and trans S-oxide diasteromers of (+)- and (−)-2-methyl-1,-benzodithiole were separated with a Chiracel OT chiral analytical column.

The subject of data set [2] is Human Liver Microsomes. As to the kind of experiment: in vitro. As to the method:
as §1, §2, §3, §4

Data set [3] deals with T1, adult human liver flavin-containing monooxygenase (form 3) (Homo sapiens, UniProt P31513, E158K).
T1 sequence (P31513 1-532 E158K): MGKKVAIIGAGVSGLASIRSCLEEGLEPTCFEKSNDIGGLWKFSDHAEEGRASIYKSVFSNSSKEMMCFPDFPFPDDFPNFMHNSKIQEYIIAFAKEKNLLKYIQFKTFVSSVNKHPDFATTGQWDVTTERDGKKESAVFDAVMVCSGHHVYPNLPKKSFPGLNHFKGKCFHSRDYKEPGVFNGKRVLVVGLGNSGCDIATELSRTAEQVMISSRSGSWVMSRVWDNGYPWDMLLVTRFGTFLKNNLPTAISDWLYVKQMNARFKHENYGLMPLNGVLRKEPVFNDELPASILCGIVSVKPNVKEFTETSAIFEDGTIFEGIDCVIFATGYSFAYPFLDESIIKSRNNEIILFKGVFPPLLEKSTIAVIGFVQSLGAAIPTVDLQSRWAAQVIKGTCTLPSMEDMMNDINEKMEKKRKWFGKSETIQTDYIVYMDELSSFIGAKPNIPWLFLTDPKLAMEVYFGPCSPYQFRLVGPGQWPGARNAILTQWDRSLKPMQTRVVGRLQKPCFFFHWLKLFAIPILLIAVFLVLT
Nature of the data set: N- and S-oxygenation by cDNA-expressed HLFMO 3 (solubilized protein from E. coli transformed with pTrcHLFMO 3), HPLC. How it is done: as §1
Competent NM522 Escherichia coli cells were transformed with the pTrc HLFMO 3 plasmid. […] After inoculation with a fresh overnight culture of NM522 containing pTrcHLFMO 3, the culture was grown at 37° C. until Abs600 was approximately 0.5 absorbance units. Finally, IPTG (0.8 mM) was added to the culture to induce expression of protein and the culture was left to grow overnight at 37° C.
The bacterial pellet was resuspended in 5 volumes of 50 mM potassium phosphate buffer (pH 8.4) containing 1% Triton X-100, 0.1% L-, α-phosphatidylcholine (L-α-lecithin) from egg yolk, 500 μM PMSF, and 1 mM EDTA. The mixture was sonicated and then centrifuged to remove cellular debris. As a control, bacterial lysate extracts from IPTG-induced pTrc99A-transformed NM522 cells (i.e., pTrc99A without the HLFMO 3 cDNA insert) were prepared under the same conditions.
as §2, §3, §4

With `NC(=S)c1ccccc1` [Thiobenzamide, thiobenzamide], the Michaelis constant (Km) – broadly, the concentration of substrate that gives half-maximal velocity – in data set [1] is 14.9 µM. The “Vmax, Human Liver Microsomes” value in data set [2] was 1.3 nmol/min/mg of protein. Moreover, the “substrate activity for human liver microsomes and expressed HLFMO 3, in words” value in data set [3] is “excellent substrates”. For the same compound, in data set [3] (in the presence of microsomes and expressed HLFMO 3), the “pH of maximum S-oxygenase activity” value is on record as around 8.5.
